# Read-outs that look alike come from different tables or passages of the source.
# Experiments:
# [1] = test system: BACE1 (Aβ40 from cells stably expressing Amyloid Precursor Protein); assay: In vitro BACE1 cell-based assay (Aβ40 in conditioned medium, HTRF)
# Method: In Vitro BACE1 Cell-Based Assay The cell-based assay measures inhibition or reduction of Aβ40 in conditioned medium of test compound treated cells expressing amyloid precursor protein. Cells stably expressing Amyloid Precursor Protein (APP) were plated at a density of 45K cells/well in 384 well plates (Corning/BioCoat 354663). The test compounds were then added to cells in 22-point dose response concentrations with the starting concentration being 62.5 μM. The compounds were diluted from stock solutions in DMSO and the final DMSO concentration of the test compounds on cells was 0.625%. The cells were cultivated overnight at 37° C. and 5% CO2 in DMEM supplemented with 10% FBS. After 24 h of incubation with the test compounds, the conditioned media was collected and the Aβ40 levels were determined using HTRF (Homogeneous Time Resolved Fluorescence). […] The HTRF to detect Aβ40 was performed in 384 well plates (Costar 3658). The antibody pair that were used to detect Aβ 40 from cell supernatants were ConfAb40 antibody (Amgen in-house) and biotinylated 6E10 (BIOLEGEND). As an alternative to ConfAb40, a commercially available antibody, Anti-beta Amyloid 1-40 antibody [BDI350] from Abcam, Cambridge, Mass. 02139-1517 (Product code: ab20068), may be used in this assay. […] The conditioned media was incubated with above antibodies and Streptavidin Allophycocyanin Conjugate for 30-60 minutes at 23° C. The final readout was performed on Envision from PerkinElmer.
# human recombinant BACE2 = human recombinant BACE2 (Homo sapiens (Human), UniProt Q9Y5Z0); assay: In vitro enzymatic BACE2 FRET assay; assay type: biochemical; conditions: read-out: BACE2 Enzyme IC50
# Sequence of human recombinant BACE2 (Q9Y5Z0 63-518): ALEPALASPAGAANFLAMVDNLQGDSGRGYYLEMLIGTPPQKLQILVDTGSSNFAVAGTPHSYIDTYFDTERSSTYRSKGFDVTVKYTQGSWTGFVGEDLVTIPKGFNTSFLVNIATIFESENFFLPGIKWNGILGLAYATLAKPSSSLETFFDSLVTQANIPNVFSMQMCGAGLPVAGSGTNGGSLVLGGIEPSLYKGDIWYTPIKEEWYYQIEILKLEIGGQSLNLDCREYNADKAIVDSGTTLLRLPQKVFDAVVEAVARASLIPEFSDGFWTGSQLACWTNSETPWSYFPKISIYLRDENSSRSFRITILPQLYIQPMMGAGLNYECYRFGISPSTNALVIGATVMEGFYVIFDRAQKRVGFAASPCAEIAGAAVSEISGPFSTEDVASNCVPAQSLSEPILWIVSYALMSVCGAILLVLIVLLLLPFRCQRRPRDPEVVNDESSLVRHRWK
# Method: (§1) In Vitro Enzymatic BACE1 and BACE2 FRET (Fluorescence Resonance Energy Transfer) Assays […] These recombinant proteins were further purified using Ni-NTA affinity chromatography (Qiagen). […] The assay was effectively started by the addition of FRET substrate (50 nM) and the combination was incubated for one hour. The FRET assay was terminated by the addition of tris buffer, which raised the pH to neutrality, and the fluorescence was determined. The FRET substrate was a peptide with commercially available fluorophore and quencher, on opposite sides of the BACE cleavage site. The specific FRET substrate used in this assay was made by Amgen in-house. Commercially available FRET substrates, for example, the FRET substrate offered with the BACE1 FRET Assay Kit sold by ThermoFisher Scientific (Catalog Number P2985), may be used in this assay with the appropriate modifications, which are within the purview of the ability of a person with ordinary skill in the art. Proteolytic cleavage of the FRET substrate released quenching of fluorescence (excitation 488 nm and emission 590 nm).
# Recombinant CatD = Recombinant CatD (Homo sapiens (Human), UniProt P07339); assay: In vitro enzymatic Cathepsin D (CatD) FRET assay; assay type: biochemical; conditions: read-out: Cat D Enzyme IC50
# Sequence of Recombinant CatD (P07339 65-412): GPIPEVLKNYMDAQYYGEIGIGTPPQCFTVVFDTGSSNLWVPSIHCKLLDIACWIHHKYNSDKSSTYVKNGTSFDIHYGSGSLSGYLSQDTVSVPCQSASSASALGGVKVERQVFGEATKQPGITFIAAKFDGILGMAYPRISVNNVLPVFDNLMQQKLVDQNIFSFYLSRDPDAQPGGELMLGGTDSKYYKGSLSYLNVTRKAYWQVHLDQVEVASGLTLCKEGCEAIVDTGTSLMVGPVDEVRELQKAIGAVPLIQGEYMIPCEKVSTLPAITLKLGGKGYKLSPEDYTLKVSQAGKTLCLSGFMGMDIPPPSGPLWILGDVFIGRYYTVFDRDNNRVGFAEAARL
# Method: In Vitro Enzymatic Cathepsin D (CatD) FRET Assay Recombinant CatD was expressed in CHO cells. The assay buffer for CatD was 0.05 M citrate pH 3.5, 10% DMSO final, 5 mM CHAPS. […] The assays was effectively started by the addition of different FRET substrates (20 nM for CatD) and the combination was incubated for one hour. The FRET assay was terminated with by addition of tris buffer, which raises the pH to neutrality, and the fluorescence was determined. The FRET substrate was a peptide with commercially available fluorophore and quencher, on opposite sides of the CatD cleavage site. The CatD substrate peptide sequence was based on sequence #1 of Table 1 from Gulnik et al., FEBS Lett. 413(2):379-384 (1997). Proteolytic cleavage of the FRET substrate released quenching of fluorescence (CatD excitation 500 nm and emission 580 nm). The in vitro CatD FRET assay data for each of the Examples is provided in Table 2, conducted by the first procedure described above. […] Thus, with this surprising selectivity profile, the compounds provided herein are believed to minimize, reduce or completely eliminate any risk of retinal atrophy and abnormal development of the eye and of the retinal pigmented epithelium as it relates to the normal function and activity of CatD.
# human recombinant BACE1 = human recombinant BACE1 (Homo sapiens (Human), UniProt P56817); assay: In vitro enzymatic BACE1 FRET assay; assay type: biochemical; conditions: read-out: BACE1 Enzyme IC50
# Sequence of human recombinant BACE1 (P56817 46-501): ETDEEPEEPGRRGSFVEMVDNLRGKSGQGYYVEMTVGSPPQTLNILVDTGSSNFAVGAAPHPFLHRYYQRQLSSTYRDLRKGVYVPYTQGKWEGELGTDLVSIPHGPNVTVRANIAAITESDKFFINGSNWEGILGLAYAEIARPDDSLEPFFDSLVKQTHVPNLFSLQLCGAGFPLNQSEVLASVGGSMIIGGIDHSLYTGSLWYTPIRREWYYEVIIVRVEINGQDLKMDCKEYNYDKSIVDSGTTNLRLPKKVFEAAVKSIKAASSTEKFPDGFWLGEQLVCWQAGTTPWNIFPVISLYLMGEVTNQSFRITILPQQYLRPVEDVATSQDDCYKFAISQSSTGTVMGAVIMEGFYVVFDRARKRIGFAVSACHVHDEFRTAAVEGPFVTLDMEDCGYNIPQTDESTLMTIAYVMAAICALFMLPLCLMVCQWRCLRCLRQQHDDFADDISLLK
# Method: as §1
# [2] = Aβ40, 24 h incubation, read-out: BACE1 Cell IC50
"IC50 [1, 2]",IC50 (human recombinant BACE2),IC50 (Recombinant CatD),IC50 (human recombinant BACE1),Compound,"IC50 ([1]; 24 h, read-out: BACE1 Cell IC50 (μM))"
0.2 µM,605 nM,382000 nM,15 nM,"NC1=N[C@@]2(c3cc(/C=C(\F)c4ncc(C(F)(F)F)cc4Cl)ccc3F)CO[C@H](C(F)(F)F)[C@H]2CS1 [Example 137, (4aS,5S,7aS)-7a-(5-((Z)-2-(3-chloro-5-(trifluoromethyl)pyridin-2-yl)-2-fluorovinyl)-2-fluorophenyl)-5-(trifluoromethyl)-4a,5,7,7a-tetrahydro-4H-furo[3,4-d][1,3]thiazin-2-amine]",
53.5 µM,140000 nM,95600 nM,9010 nM,"N#Cc1ccc(/C(F)=C/c2ccc(F)c([C@@]34CO[C@@H](C(F)(F)F)[C@@H]3COC(N)=N4)c2)nc1 (single isomer, unassigned) [Example 143]",
0.0151 µM,2220 nM,> 44400 nM,108 nM,"NC1=N[C@@]2(c3cc(/C=C(\F)c4ccc(OC(F)(F)F)cn4)ccc3F)CO[C@H](C(F)(F)F)[C@H]2CS1 [Example 129, (4aS,5S,7aS)-7a-(2-fluoro-5-((Z)-2-fluoro-2-(5-(trifluoromethoxy)pyridin-2-yl)vinyl)phenyl)-5-(trifluoromethyl)-4a,5,7,7a-tetrahydro-4H-furo[3,4-d][1,3]thiazin-2-amine]",
0.0181 µM,741 nM,> 400000 nM,21.6 nM,"N#Cc1ccc(/C(F)=C/c2ccc(F)c([C@]34CO[C@H](C(F)F)[C@H]3CSC(N)=N4)c2)nc1 [Example 144, 6-((Z)-2-(3-((4aS,5S,7aS)-2-amino-5-(difluoromethyl)-4a,5,7,7a-tetrahydro-4H-furo[3,4-d][1,3]thiazin-7a-yl)-4-fluorophenyl)-1-fluorovinyl)nicotinonitrile]",
0.00038 µM,2.79 nM,13200 nM,0.286 nM,"CC#CCOc1cnc(/C(F)=C/c2ccc(F)c([C@]34CN(c5ncc(F)cn5)C[C@H]3CSC(N)=N4)c2)cn1 [Example 117, (4aR,7aS)-7a-(5-((Z)-2-(5-(but-2-yn-1-yloxy)pyrazin-2-yl)-2-fluorovinyl)-2-fluorophenyl)-6-(5-fluoropyrimidin-2-yl)-4,4a,5,6,7,7a-hexahydropyrrolo[3,4-d][1,3]thiazin-2-amine]",
0.116 µM,1140 nM,> 400000 nM,27.2 nM,"Cc1cc(C#N)cnc1/C(F)=C/c1ccc(F)c([C@]23CO[C@H](C(F)(F)F)[C@H]2CSC(N)=N3)c1 [Example 138, 6-((Z)-2-(3-((4aS,5S,7aS)-2-amino-5-(trifluoromethyl)-4a,5,7,7a-tetrahydro-4H-furo[3,4-d][1,3]thiazin-7a-yl)-4-fluorophenyl)-1-fluorovinyl)-5-methylnicotinonitrile]",
0.00076 µM,34 nM,6300 nM,0.186 nM,"C#CCOc1cnc(/C(F)=C/c2ccc(F)c([C@]34CN(c5ncccn5)C[C@H]3CSC(N)=N4)c2)cn1 [Example 120, (4aR,7aS)-7a-(2-fluoro-5-((Z)-2-fluoro-2-(5-(prop-2-yn-1-yloxy)pyrazin-2-yl)vinyl)phenyl)-6-(pyrimidin-2-yl)-4,4a,5,6,7,7a-hexahydropyrrolo[3,4-d][1,3]thiazin-2-amine]",
0.161 µM,9720 nM,237000 nM,86.2 nM,"N#Cc1ccc(/C(F)=C/c2ccc(F)c([C@@]34CO[C@@H](C(F)(F)F)[C@@H]3COC(N)=N4)c2)nc1 (racemic) [Example 141, 6-((Z)-2-(3-((4aR,5S,7aS)-2-amino-5-(trifluoromethyl)-4a,5,7,7a-tetrahydro-4H-furo[3,4-d][1,3]oxazin-7a-yl)-4-fluorophenyl)-1-fluorovinyl)nicotinonitrile and 6-((Z)-2-(3-((4aS,5R,7aR)-2-amino-5-(trifluoromethyl)-4a,5,7,7a-tetrahydro-4H-furo[3,4-d][1,3]oxazin-7a-yl)-4-fluorophenyl)-1-fluorovinyl)nicotinonitrile]",
0.00545 µM,27.2 nM,246000 nM,1.86 nM,"N#Cc1ccc(/C(F)=C/c2ccc(F)c([C@@]34CN(c5ncc(F)cn5)C[C@@H]3CSC(N)=N4)c2)nc1 [Example 103, 6-((Z)-2-(3-((4aS,7aR)-2-amino-6-(5-fluoropyrimidin-2-yl)-4,4a,5,6,7,7a-hexahydropyrrolo[3,4-d][1,3]thiazin-7a-yl)-4-fluorophenyl)-1-fluorovinyl)nicotinonitrile]",
0.112 µM,427 nM,> 400000 nM,426 nM,"NC1=N[C@@]2(c3cc(/C=C(\F)c4ccc(F)cn4)ccc3F)CO[C@H](C(F)(F)F)[C@H]2CS1 [Example 132, (4aS,5S,7aS)-7a-(2-fluoro-5-((Z)-2-fluoro-2-(5-fluoropyridin-2-yl)vinyl)phenyl)-5-(trifluoromethyl)-4a,5,7,7a-tetrahydro-4H-furo[3,4-d][1,3]thiazin-2-amine]",
2.03 µM,6630 nM,> 400000 nM,622 nM,"COc1cnc(/C(F)=C/c2ccc(F)c([C@]34CO[C@H](C(F)(F)F)[C@H]3CSC(N)=N4)c2)cn1 [Example 136, (4aS,5S,7aS)-7a-(2-fluoro-5-((Z)-2-fluoro-2-(5-methoxypyrazin-2-yl)vinyl)phenyl)-5-(trifluoromethyl)-4a,5,7,7a-tetrahydro-4H-furo[3,4-d][1,3]thiazin-2-amine]",
0.000542 µM,15.3 nM,18900 nM,1.01 nM,"C#C[C@H](C)Oc1cnc(/C(F)=C/c2ccc(F)c([C@]34CN(c5ncc(F)cn5)C[C@H]3CSC(N)=N4)c2)cn1 [Example 115, (4aR,7aS)-7a-(5-((Z)-2-(5-((S)-but-3-yn-2-yloxy)pyrazin-2-yl)-2-fluorovinyl)-2-fluorophenyl)-6-(5-fluoropyrimidin-2-yl)-4,4a,5,6,7,7a-hexahydropyrrolo[3,4-d][1,3]thiazin-2-amine]",
0.000682 µM,3.08 nM,118000 nM,0.241 nM,"N#Cc1ccc(/C(F)=C/c2ccc(F)c([C@]34CN(c5ncc(F)cn5)C[C@H]3CSC(N)=N4)c2)nc1 [Example 102, 6-((Z)-2-(3-((4aR,7aS)-2-amino-6-(5-fluoropyrimidin-2-yl)-4,4a,5,6,7,7a-hexahydropyrrolo[3,4-d][1,3]thiazin-7a-yl)-4-fluorophenyl)-1-fluorovinyl)nicotinonitrile]",

Compound,"IC50 [1, 2]",IC50 (human recombinant BACE2),IC50 (Recombinant CatD),IC50 (human recombinant BACE1),"IC50 ([1]; 24 h, read-out: BACE1 Cell IC50 (μM))"
"NC1=N[C@@]2(c3cc(/C=C(\F)c4cnc(OCC(F)(F)C(F)F)cn4)ccc3F)CN(c3ncc(F)cn3)C[C@H]2CS1 [Example 112, (4aR,7aS)-7a-(2-fluoro-5-((Z)-2-fluoro-2-(5-(2,2,3,3-tetrafluoropropoxy)pyrazin-2-yl)vinyl)phenyl)-6-(5-fluoropyrimidin-2-yl)-4,4a,5,6,7,7a-hexahydropyrrolo[3,4-d][1,3]thiazin-2-amine]",,136 nM,1320 nM,108 nM,0.02 µM
